Structures are written as SMILES. Bounds are passed on as bounds.

In assay [1] the test system is NCI-H1703. Put plainly: Inhibition of cell proliferation of human NCI-H1703 cells after 72 hrs by MTS assay. It is filed as functional. The settings on record: NCI-H1703, 72 h. Background: Tetrazolium dyes change colour on reduction, which living cells bring about.
The nature of assay [2]: Inhibition of cell proliferation of human HRA19 cells after 72 hrs by MTS assay. The note with it: HRA19, 72 h. The assay is classed as functional.
Assay [3] deals with T1, Peregrin (Homo sapiens) (UniProt P55201).
T1 sequence (whole entry): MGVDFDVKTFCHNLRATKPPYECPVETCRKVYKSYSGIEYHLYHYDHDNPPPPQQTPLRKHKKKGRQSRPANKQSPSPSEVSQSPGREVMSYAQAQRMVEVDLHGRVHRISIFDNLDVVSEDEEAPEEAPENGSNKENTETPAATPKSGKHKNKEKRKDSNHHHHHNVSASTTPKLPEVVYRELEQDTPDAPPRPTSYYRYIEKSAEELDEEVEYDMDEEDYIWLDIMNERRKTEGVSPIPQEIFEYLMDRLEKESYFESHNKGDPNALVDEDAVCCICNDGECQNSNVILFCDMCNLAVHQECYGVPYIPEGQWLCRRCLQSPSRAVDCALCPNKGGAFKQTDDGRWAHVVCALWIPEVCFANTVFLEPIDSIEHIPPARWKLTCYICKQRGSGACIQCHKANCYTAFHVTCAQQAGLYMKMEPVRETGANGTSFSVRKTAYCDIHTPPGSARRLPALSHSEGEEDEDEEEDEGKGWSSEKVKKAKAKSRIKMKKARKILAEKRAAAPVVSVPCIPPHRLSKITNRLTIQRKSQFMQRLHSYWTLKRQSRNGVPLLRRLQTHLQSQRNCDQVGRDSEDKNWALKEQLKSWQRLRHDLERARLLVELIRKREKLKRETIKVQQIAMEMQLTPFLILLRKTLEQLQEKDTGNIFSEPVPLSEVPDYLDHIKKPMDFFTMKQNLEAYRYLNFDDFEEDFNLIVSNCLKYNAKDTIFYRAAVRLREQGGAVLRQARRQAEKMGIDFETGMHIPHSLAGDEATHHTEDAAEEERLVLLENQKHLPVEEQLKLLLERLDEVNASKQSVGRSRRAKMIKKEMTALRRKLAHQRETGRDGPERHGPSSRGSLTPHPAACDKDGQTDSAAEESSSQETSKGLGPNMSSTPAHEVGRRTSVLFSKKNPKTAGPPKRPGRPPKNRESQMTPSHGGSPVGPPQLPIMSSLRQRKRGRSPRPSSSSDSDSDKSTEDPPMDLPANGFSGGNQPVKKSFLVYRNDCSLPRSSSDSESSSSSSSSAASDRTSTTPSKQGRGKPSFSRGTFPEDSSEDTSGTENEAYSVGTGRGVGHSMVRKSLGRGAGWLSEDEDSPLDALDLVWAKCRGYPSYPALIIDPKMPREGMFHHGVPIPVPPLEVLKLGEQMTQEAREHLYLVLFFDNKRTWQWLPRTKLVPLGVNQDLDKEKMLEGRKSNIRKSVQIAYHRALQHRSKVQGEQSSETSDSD
Description: Binding affinity to BRPF1 (unknown origin) assessed as change in melting temperature at 10 uM by differential scanning fluorimetry based thermal shift assay

Assay [4] in a line: Inhibition of cell proliferation of human RERF-LC-Sq1 cells after 72 hrs by MTS assay. The assay is classed as functional. The note with it: RERF-LC-Sq1, 72 h.
For assay [5], the system named is DMS-114. Put plainly: Inhibition of cell proliferation of human DMS114 cells after 72 hrs by MTS assay. The assay is classed as functional. The settings on record: DMS-114, 72 h.

Take `Cc1cc2cc(NS(=O)(=O)c3ccc(C#N)cc3)ccc2n(C)c1=O`: the 50% growth inhibitory concentration (GI50) (in general, the concentration at which growth is held to half of that of the control) in assay [1] was greater than 30 µM; in assay [2] it was 15.6 µM; in assay [4], 17.1 µM; in assay [5], 16.6 µM. Moreover, in assay [3], the ΔTm (usually the shift of the melting midpoint relative to a reference) amounted to 9.7 °C.

The values are drawn from ChEMBL document CHEMBL4028852, “Design of a Chemical Probe for the Bromodomain and Plant Homeodomain Finger-Containing (BRPF) Family of Proteins” (J Med Chem, 2017).
